In publication PMC8765048 (JCI Insight, 2022) one finds IC50 and IC90 data, which are given here for two compounds.

Common to all, as to assay: microbe, parasite or virus in culture
What all share (type): cell-based

The subject of assay [1] is SARS-CoV-2 variants. The note with it: Severe acute respiratory syndrome coronavirus 2, Calu-3.
For assay [2], the system named is SARS-CoV-2 variants. As to conditions: Severe acute respiratory syndrome coronavirus 2, Vero C1008.
A further assay has as its system SARS-CoV-2. The note with it: Severe acute respiratory syndrome coronavirus 2; read-out: IC50 values against all viral variants and in all examined cell types.

As a reminder, the IC50 is the concentration that gives 50% inhibition. One may read the IC90 as the concentration at which the effect reaches the 90% level. Read a low IC90 as greater potency.

SMILES strings stand for the structures.

For the compound `CCC(CC)COC(=O)[C@H](C)N[P@](=O)(OC[C@H]1O[C@@](C#N)(c2ccc3c(N)ncnn23)[C@H](O)[C@@H]1O)Oc1ccccc1` [Remdesivir, remdesivir, reference compound], in the assay with SARS-CoV-2 variants [1], the IC50 came to 2290 ± 449 nM and the IC90 was 7.21 ± 1 µM. In addition, in the assay with SARS-CoV-2 variants [2], the IC50 was 2100 ± 516 nM and the IC90 was 4450 ± 829 nM.

With `NC(=O)c1cn([C@@H]2O[C@H](CO)[C@@H](O)[C@H]2O)c2ncnc(N)c12` [Sangivamycin, sangivamycin], the IC50 in the assay with SARS-CoV-2 variants [1] was 64.3 ± 4.7 nM; with SARS-CoV-2 it was 14 to 82 nM; with SARS-CoV-2 variants [2] it was 42 ± 8.8 nM. The IC90 in the assay on SARS-CoV-2 variants [1] was determined as 0.255 ± 0.0461 µM; in the assay on SARS-CoV-2 variants [2], 220 ± 42.1 nM.
